In ChEMBL document CHEMBL5212743, “Selectivity Literature for EUbOPEN Chemogenomics Library wave 3” (2023):

How the values were obtained:
[1] = biological target: T1, Gamma-aminobutyric acid receptor subunit alpha-1 (Homo sapiens, UniProt P14867); experiment: (§1) Selectivity interaction (CEREP panel (GPCRS, ion channels, transporters)) EUB0000193b GABRA1
T1 sequence (P14867 whole entry): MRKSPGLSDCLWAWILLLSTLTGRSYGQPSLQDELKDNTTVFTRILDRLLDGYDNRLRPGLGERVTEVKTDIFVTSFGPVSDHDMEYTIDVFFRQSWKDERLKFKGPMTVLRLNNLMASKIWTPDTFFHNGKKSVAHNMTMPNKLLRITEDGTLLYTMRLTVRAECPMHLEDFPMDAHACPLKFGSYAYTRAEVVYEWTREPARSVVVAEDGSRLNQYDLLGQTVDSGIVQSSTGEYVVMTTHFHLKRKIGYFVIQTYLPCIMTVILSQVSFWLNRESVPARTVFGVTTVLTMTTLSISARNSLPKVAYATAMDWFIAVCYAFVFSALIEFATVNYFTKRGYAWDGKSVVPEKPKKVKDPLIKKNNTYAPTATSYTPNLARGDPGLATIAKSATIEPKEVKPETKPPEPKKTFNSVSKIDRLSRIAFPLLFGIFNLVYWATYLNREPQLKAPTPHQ

[2] = biological target: Histone-lysine N-methyltransferase NSD2 (Homo sapiens) (UniProt O96028); experiment: Selectivity interaction (Epigenetic methyltransferases panel) EUB0000193b NSD2; details: Inactive against protein arginine methyltransferases,, at 10 µM
[3] = biological target: T2, Adenosine receptor A1 (Homo sapiens) (UniProt P30542); experiment: (§2) Selectivity interaction (CEREP panel (GPCRS, ion channels, transporters)) EUB0000193b ADORA1; details: Inactive against protein arginine methyltransferases,, at 10 µM
T2 sequence (whole entry): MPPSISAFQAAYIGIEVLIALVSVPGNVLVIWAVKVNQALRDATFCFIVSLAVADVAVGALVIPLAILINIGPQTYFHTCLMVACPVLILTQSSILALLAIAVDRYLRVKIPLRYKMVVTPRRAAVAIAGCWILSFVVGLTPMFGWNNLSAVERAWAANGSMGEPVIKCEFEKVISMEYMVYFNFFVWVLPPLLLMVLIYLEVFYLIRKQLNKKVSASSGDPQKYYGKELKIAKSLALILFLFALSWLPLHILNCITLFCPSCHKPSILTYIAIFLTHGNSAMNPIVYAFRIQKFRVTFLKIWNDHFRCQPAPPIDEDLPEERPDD

[4] = biological target: T3, Gamma-aminobutyric acid receptor subunit alpha-1 (Homo sapiens) (UniProt P14867); experiment: as §1; details: Inactive against protein arginine methyltransferases,, at 10 µM
T3 sequence (whole entry): T1 sequence (P14867 whole entry)

[5] = biological target: Kappa-type opioid receptor (Homo sapiens, UniProt P41145); experiment: Selectivity interaction (CEREP panel (GPCRS, ion channels, transporters)) EUB0000193b OPRK1; details: Inactive against protein arginine methyltransferases,, at 10 µM
[6] = biological target: T4, Adenosine receptor A3 (Homo sapiens) (UniProt P0DMS8); experiment: Selectivity interaction (CEREP panel (GPCRS, ion channels, transporters)) EUB0000193b ADORA3; details: Inactive against protein arginine methyltransferases,, at 10 µM
T4 sequence (whole entry): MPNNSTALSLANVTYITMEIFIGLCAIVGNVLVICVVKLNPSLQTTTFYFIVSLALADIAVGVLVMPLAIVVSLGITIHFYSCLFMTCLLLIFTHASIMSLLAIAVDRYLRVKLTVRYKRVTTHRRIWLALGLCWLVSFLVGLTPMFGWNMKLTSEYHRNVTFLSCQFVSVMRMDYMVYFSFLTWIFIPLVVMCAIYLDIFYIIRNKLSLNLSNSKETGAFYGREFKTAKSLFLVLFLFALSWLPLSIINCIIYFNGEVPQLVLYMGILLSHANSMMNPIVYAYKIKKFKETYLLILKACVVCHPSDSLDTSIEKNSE

[7] = biological target: Substance-K receptor (Homo sapiens) (UniProt P21452); experiment: Selectivity interaction (CEREP panel (GPCRS, ion channels, transporters)) EUB0000193b TACR2; details: Inactive against protein arginine methyltransferases,, at 10 µM
Adenosine receptor A1 = Adenosine receptor A1 (Homo sapiens, UniProt P30542); experiment: as §2
[8] = biological target: Adenosine receptor A2a (Homo sapiens) (UniProt P29274); experiment: Selectivity interaction (CEREP panel (GPCRS, ion channels, transporters)) EUB0000193b ADORA2A; details: Inactive against protein arginine methyltransferases,, at 10 µM
[9] = biological target: Delta-type opioid receptor (Homo sapiens) (UniProt P41143); experiment: Selectivity interaction (CEREP panel (GPCRS, ion channels, transporters)) EUB0000193b OPRD1; details: Inactive against protein arginine methyltransferases,, at 10 µM
Delta-type opioid receptor (Homo sapiens), sequence (P41143 whole entry): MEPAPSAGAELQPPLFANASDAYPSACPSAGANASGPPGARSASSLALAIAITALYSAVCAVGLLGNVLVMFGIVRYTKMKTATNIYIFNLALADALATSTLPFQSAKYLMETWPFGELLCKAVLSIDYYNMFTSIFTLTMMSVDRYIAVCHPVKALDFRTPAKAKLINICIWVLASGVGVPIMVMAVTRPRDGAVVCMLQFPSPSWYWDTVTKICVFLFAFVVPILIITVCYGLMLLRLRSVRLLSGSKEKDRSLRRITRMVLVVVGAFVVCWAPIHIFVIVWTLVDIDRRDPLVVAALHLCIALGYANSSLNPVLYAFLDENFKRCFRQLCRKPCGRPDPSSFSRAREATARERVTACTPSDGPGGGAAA

Histone-lysine N-methyltransferase NSD2 (Homo sapiens), sequence (O96028 whole entry): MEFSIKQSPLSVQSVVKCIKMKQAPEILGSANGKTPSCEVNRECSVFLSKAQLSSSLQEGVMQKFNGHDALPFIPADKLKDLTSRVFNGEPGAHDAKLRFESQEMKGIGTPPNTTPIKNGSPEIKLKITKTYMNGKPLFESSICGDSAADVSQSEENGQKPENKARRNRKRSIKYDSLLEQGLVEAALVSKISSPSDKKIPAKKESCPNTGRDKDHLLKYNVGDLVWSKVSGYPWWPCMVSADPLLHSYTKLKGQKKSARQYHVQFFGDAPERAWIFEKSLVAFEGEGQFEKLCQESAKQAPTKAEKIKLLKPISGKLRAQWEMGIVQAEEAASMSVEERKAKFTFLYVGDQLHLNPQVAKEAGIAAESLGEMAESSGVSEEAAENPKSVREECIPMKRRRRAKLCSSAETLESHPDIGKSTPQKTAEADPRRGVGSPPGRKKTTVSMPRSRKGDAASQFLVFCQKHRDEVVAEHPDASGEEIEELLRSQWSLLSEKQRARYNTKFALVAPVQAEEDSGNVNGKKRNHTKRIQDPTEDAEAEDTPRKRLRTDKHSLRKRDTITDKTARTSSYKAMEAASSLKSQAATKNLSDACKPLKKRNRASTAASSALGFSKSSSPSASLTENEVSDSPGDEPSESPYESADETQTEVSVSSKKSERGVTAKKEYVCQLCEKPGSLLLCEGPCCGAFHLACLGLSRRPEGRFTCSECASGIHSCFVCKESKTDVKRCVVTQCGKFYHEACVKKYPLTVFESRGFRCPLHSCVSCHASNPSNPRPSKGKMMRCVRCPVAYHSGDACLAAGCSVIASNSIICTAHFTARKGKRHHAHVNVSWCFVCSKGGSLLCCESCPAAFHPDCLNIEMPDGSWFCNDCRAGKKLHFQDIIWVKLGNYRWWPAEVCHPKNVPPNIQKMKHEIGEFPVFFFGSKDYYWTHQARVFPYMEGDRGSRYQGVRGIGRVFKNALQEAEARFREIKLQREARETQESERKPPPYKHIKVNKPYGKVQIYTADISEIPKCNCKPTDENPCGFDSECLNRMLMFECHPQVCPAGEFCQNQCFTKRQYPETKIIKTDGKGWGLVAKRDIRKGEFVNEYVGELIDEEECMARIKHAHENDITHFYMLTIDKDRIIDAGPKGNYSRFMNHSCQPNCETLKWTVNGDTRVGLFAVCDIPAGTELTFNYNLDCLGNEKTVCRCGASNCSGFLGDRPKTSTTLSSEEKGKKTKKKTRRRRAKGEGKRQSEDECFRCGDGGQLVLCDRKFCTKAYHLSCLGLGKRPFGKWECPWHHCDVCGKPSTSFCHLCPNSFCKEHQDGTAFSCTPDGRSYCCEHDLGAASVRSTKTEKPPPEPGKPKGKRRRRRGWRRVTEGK
Kappa-type opioid receptor, sequence (P41145 whole entry): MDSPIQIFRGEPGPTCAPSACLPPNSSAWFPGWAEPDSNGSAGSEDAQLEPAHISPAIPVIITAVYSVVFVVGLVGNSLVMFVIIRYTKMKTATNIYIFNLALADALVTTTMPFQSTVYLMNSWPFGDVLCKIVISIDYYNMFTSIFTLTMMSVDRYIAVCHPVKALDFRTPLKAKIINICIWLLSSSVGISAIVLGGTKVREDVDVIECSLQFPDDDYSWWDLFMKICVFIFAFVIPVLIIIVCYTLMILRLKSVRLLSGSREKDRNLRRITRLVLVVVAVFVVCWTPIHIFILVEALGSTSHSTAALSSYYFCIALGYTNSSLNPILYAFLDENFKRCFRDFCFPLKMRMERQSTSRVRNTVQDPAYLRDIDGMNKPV
Substance-K receptor (Homo sapiens), sequence (P21452 whole entry): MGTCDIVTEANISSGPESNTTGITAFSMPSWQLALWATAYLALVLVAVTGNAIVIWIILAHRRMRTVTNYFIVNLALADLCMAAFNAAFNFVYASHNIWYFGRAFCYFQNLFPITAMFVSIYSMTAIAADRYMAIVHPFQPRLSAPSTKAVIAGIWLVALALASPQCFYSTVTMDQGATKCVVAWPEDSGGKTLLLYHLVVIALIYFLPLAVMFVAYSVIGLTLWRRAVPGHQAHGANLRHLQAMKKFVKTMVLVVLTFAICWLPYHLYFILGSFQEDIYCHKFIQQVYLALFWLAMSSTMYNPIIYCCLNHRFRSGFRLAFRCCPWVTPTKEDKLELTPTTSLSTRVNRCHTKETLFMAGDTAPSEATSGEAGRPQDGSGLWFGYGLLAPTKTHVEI
Adenosine receptor A2a (Homo sapiens), sequence (P29274 whole entry): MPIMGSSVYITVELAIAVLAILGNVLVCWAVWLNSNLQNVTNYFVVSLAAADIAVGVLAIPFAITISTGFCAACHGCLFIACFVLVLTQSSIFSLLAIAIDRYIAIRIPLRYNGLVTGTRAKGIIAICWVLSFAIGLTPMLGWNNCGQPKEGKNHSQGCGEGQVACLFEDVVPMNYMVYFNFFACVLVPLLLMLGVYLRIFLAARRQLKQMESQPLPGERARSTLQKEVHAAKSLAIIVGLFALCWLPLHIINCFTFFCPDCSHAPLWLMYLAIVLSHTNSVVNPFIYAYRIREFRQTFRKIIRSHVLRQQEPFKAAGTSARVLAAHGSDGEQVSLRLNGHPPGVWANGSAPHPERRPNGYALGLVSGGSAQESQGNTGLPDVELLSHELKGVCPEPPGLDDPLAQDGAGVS

- Ki [1]: 1800 nM
- % of activity remaining [2]: 90%
- % of inhibition [3]: 98%
- % of inhibition [4]: 90%
- % of inhibition [5]: 62%
- % of inhibition [6]: 74%
- % of inhibition [7]: 61%
- Ki (Adenosine receptor A1): 12 nM
- % of inhibition [8]: 98%
- % of inhibition [9]: 51%
SMILES: Clc1cc2c(NC3CCCC3)nnc(-c3ccncc3)c2cc1Cl
